Source: US20250367129A1, “Lipid Compounds and Uses Thereof” (Pfizer Inc., priority 2022, published 2025)

What was measured:
[1] = LNP size and polydispersity index by Malvern Zetasizer dynamic light scattering (CA HA modFlu mRNA LNPs); assay type: physicochemical; conditions: DLS; for Size (nm): LNP of the ionizable lipid:cholesterol:DSPC:ALC-0159 about 46.3:42.7:9.4:1.6, N:P about 6:1, CA HA modFlu mRNA; for PDI: LNP with CA HA modFlu mRNA
Protocol: (§1) Lipid nanoparticles were prepared and tested according to the general procedures described in U.S. Pat. No. 9,737,619 (PCT Pub. No. WO2015/199952) and U.S. Pat. No. 10,166,298 (PCT Pub. No. WO 2017/075531) and PCT Pub. No. WO2020/146805. The novel ionizable lipids of the invention, cholesterol, distearoylphosphatidylcholine (DSPC) and ALC-0159 2-[(polyethylene glycol)-2000]-N,N ditetradecylacetamide were solubilized in ethanol at a molar ratio of about 46.3:42.7:9.4:1.6. Lipid nanoparticles were made by mixing the lipids containing organic phase with the mRNA containing aqueous phase using an N:P ratio of about 6:1. The mRNA was diluted in buffer. Syringe pumps were used to mix the ethanolic lipid solution with the mRNA aqueous solution. The ethanol was then removed, and the external buffer replaced with another buffer (e.g., Tris) by dialysis. Finally, the lipid nanoparticles were filtered.
(§2) Total RNA concentration and encapsulation efficiency was assessed using the RiboGreen RNA quantitation assay. RNA integrity pre and post formulation was monitored by Agilent Fragment Analyzer capillary gel electrophoresis. Malvern Zetasizer dynamic light scattering (DLS) was used to determine LNP size and polydispersity index (PDI). In vitro expression of the novel ionizable lipid nanoparticles was assessed in HEK293F and Hela cells similar to described in Example 72. Nuclear count and identification of cells stained positive for gene of interest was done on an Opera Phenix high content imager (PerkinElmer, USA).

[2] = Encapsulation efficiency, RiboGreen RNA quantitation assay (CA HA modFlu mRNA LNPs); assay type: physicochemical; conditions: LNP with CA HA modFlu mRNA
Protocol: as §1, §2

HEK293F cells = test: In vitro expression of novel ionizable lipid nanoparticles, high content imaging (CA HA modFlu mRNA); assay type: cell-based; conditions: LNP with CA HA modFlu mRNA
Protocol: (§3) Plated Hek293T or Hela cells were dosed with lipid nanoparticles in a total volume of 40 μl cell culture media and incubated overnight at 37° C. and 5% CO2. After fixation with 4% paraformaldehyde in PBS cells were washed in PBS containing 0.3% Triton-X100 and 3% BSA (w/v), followed by nuclear staining with Hoechst and antibody staining for the encoded gene of interest. Nuclear count and identification of cells stained positive for gene of interest was done on an Opera Phenix high content imager (PerkinElmer, USA).
as §1, §2

Hela cells = test: as above; assay type: cell-based; conditions: LNP with CA HA modFlu mRNA
Protocol: as §3, §1, §2

CCCCCCCCC(CCCCCCCC)C(=O)OCC(COC(=O)C(CCCCCCCC)CCCCCCCC)N1CCC2(CCN(CCCCO)CC2)CC1 [Example 24, 2-(9-(4-hydroxybutyl)-3,9-diazaspiro[5.5]undecan-3-yl)propane-1,3-diyl bis(2-octyldecanoate)]
Size (nm) [1]: 82 nm
PDI [1]: 0.072
EE % [2]: 99%
EC50 Hek293F (ng/well) (HEK293F cells): 0.48 ng/well
EC50 Hela (ng/well) (Hela cells): 0.72 ng/well

CCCCCCCC(CCCCCCC)C(=O)OCC(COC(=O)C(CCCCCCC)CCCCCCC)N1CCC2(CCN(CCCCCO)CC2)CC1 [Example 25, 2-(9-(5-hydroxypentyl)-3,9-diazaspiro[5.5]undecan-3-yl)propane-1,3-diyl bis(2-heptylnonanoate)]
Size (nm) [1]: 137 nm
PDI [1]: 0.040
EE % [2]: 99%
EC50 Hek293F (ng/well) (HEK293F cells): 0.42 ng/well
EC50 Hela (ng/well) (Hela cells): 0.61 ng/well

CCCCCCCCC(CCCCCCC)C(=O)OCC(COC(=O)C(CCCCCCC)CCCCCCCC)N1CCC2(CCN(CCCCO)CC2)CC1 (centres unmarked) [Example 26, 2-(9-(4-hydroxybutyl)-3,9-diazaspiro[5.5]undecan-3-yl)propane-1,3-diyl bis(2-heptyldecanoate)]
Size (nm) [1]: 96 nm
PDI [1]: 0.030
EE % [2]: 100%
EC50 Hek293F (ng/well) (HEK293F cells): 1.6 ng/well
EC50 Hela (ng/well) (Hela cells): 1.8 ng/well

CCCCCCCCC(CCCC)C(=O)OCC(COC(=O)C(CCCC)CCCCCCCC)N1CCC2(CCN(CCCCO)CC2)CC1 (centres unmarked) [Example 27, 2-(9-(4-hydroxybutyl)-3,9-diazaspiro[5.5]undecan-3-yl)propane-1,3-diyl bis(2-butyldecanoate)]
Size (nm) [1]: 74 nm
PDI [1]: 0.095
EE % [2]: 97%
EC50 Hek293F (ng/well) (HEK293F cells): 35.9 ng/well
EC50 Hela (ng/well) (Hela cells): 12.5 ng/well

CCCCCCCCC(CCCCCC)CC(=O)OCC(COC(=O)CC(CCCCCC)CCCCCCCC)N1CCC2(CCN(CCCCO)CC2)CC1 (centres unmarked) [Example 28, 2-(9-(4-hydroxybutyl)-3,9-diazaspiro[5.5]undecan-3-yl)propane-1,3-diyl bis(3-hexylundecanoate)]
Size (nm) [1]: 96 nm
PDI [1]: 0.025
EE % [2]: 99%
EC50 Hek293F (ng/well) (HEK293F cells): 9.9 ng/well
EC50 Hela (ng/well) (Hela cells): 6.4 ng/well

CCCCCCCCC(CCCCC)C(=O)OCC(COC(=O)C(CCCCC)CCCCCCCC)N1CCC2(CCN(CCCCO)CC2)CC1 (centres unmarked) [Example 29, 2-(9-(4-hydroxybutyl)-3,9-diazaspiro[5.5]undecan-3-yl)propane-1,3-diyl bis(2-pentyldecanoate)]
Size (nm) [1]: 130 nm
PDI [1]: 0.050
EE % [2]: 100%
EC50 Hek293F (ng/well) (HEK293F cells): 0.82 ng/well
EC50 Hela (ng/well) (Hela cells): 1.0 ng/well

CCCCCCCCC(CC1CCC1)C(=O)OCC(COC(=O)C(CCCCCCCC)CC1CCC1)N1CCC2(CCN(CCCCO)CC2)CC1 (centres unmarked) [Example 30, 2-(9-(4-hydroxybutyl)-3,9-diazaspiro[5.5]undecan-3-yl)propane-1,3-diyl bis(2-(cyclobutylmethyl)decanoate)]
Size (nm) [1]: 102 nm
PDI [1]: 0.030
EE % [2]: 99%
EC50 Hek293F (ng/well) (HEK293F cells): 12.6 ng/well
EC50 Hela (ng/well) (Hela cells): 3.3 ng/well

CCCCCCCCCCCCC(CCCCCCC)C(=O)OCC(COC(=O)C(CCCCCCC)CCCCCCCCCCCC)N1CCC2(CCN(CCCCO)CC2)CC1 (centres unmarked) [Example 31, 2-(9-(4-hydroxybutyl)-3,9-diazaspiro[5.5]undecan-3-yl)propane-1,3-diyl bis(2-heptyltetradecanoate)]
Size (nm) [1]: 121 nm
PDI [1]: 0.150
EE % [2]: 99%
EC50 Hek293F (ng/well) (HEK293F cells): 1.7 ng/well
EC50 Hela (ng/well) (Hela cells): 2.9 ng/well

CCCCCCCCC(CC1CCCC1)C(=O)OCC(COC(=O)C(CCCCCCCC)CC1CCCC1)N1CCC2(CCN(CCCCO)CC2)CC1 (centres unmarked) [Example 32, 2-(9-(4-hydroxybutyl)-3,9-diazaspiro[5.5]undecan-3-yl)propane-1,3-diyl bis(2-(cyclopentylmethyl)decanoate)]
Size (nm) [1]: 132 nm
PDI [1]: 0.060
EE % [2]: 100%
EC50 Hek293F (ng/well) (HEK293F cells): 0.96 ng/well
EC50 Hela (ng/well) (Hela cells): 0.91 ng/well

CCCCCCCCC(CCCCCC)C(=O)OCC(COC(=O)C(CCCCCC)CCCCCCCC)N1CCC2(CCN(CCCCO)C2)C1 (centres unmarked) [Example 33, 2-(7-(4-hydroxybutyl)-2,7-diazaspiro[4.4]nonan-2-yl)propane-1,3-diyl bis(2-hexyldecanoate)]
Size (nm) [1]: 115 nm
PDI [1]: 0.090
EE % [2]: 99%
EC50 Hek293F (ng/well) (HEK293F cells): 0.22 ng/well
EC50 Hela (ng/well) (Hela cells): 0.29 ng/well

CCCCCCCCC(CCCCCC)C(=O)OCC(COC(=O)C(CCCCCC)CCCCCCCC)N1CC2(CCN(CCCCO)CC2)C1 (centres unmarked) [Example 34, 2-(7-(4-hydroxybutyl)-2,7-diazaspiro [3.5]nonan-2-yl)propane-1,3-diyl bis(2-hexyldecanoate)]
Size (nm) [1]: 130 nm
PDI [1]: 0.040
EE % [2]: 99%
EC50 Hek293F (ng/well) (HEK293F cells): 2.1 ng/well
EC50 Hela (ng/well) (Hela cells): 3.8 ng/well

CCCCCCCCC(CC1CC=CC1)C(=O)OCC(COC(=O)C(CCCCCCCC)CC1CC=CC1)N1CCC2(CCN(CCCCO)CC2)CC1 (centres unmarked) [Example 35, 2-(9-(4-hydroxybutyl)-3,9-diazaspiro[5.5]undecan-3-yl)propane-1,3-diyl bis(2-(cyclopent-3-en-1-ylmethyl)decanoate)]
Size (nm) [1]: 102 nm
PDI [1]: 0.040
EE % [2]: 99%
EC50 Hek293F (ng/well) (HEK293F cells): 21.3 ng/well
EC50 Hela (ng/well) (Hela cells): 1.4 ng/well

CCCCCCCCC(CCC1CCC1)C(=O)OCC(COC(=O)C(CCCCCCCC)CCC1CCC1)N1CCC2(CCN(CCCCO)CC2)CC1 (centres unmarked) [Example 36, 2-(9-(4-hydroxybutyl)-3,9-diazaspiro[5.5]undecan-3-yl)propane-1,3-diyl bis(2-(2-cyclobutylethyl)decanoate)]
Size (nm) [1]: 136 nm
PDI [1]: 0.059
EE % [2]: 99%
EC50 Hek293F (ng/well) (HEK293F cells): 1.9 ng/well
EC50 Hela (ng/well) (Hela cells): 2.4 ng/well

CCCCCCCCC(CC1CCCCC1)C(=O)OCC(COC(=O)C(CCCCCCCC)CC1CCCCC1)N1CCC2(CCN(CCCCO)CC2)CC1 (centres unmarked) [Example 37, 2-(9-(4-hydroxybutyl)-3,9-diazaspiro[5.5]undecan-3-yl)propane-1,3-diyl bis(2-(cyclohexylmethyl)decanoate)]
Size (nm) [1]: 143 nm
PDI [1]: 0.070
EE % [2]: 99%
EC50 Hek293F (ng/well) (HEK293F cells): 0.67 ng/well
EC50 Hela (ng/well) (Hela cells): 0.90 ng/well

CCCCC(CCCC)C(CCCC)CCC(=O)OCC(COC(=O)CCC(CCCC)C(CCCC)CCCC)N1CCC2(CCN(CCCCO)CC2)CC1 (centres unmarked) [Example 38, 2-(9-(4-hydroxybutyl)-3,9-diazaspiro[5.5]undecan-3-yl)propane-1,3-diyl bis(4,5-dibutylnonanoate)]
Size (nm) [1]: 146 nm
PDI [1]: 0.100
EE % [2]: 100%
EC50 Hek293F (ng/well) (HEK293F cells): 28.1 ng/well
EC50 Hela (ng/well) (Hela cells): 7.0 ng/well

CCCCCCC(CCCC)(CCCC)CC(=O)OCC(COC(=O)CC(CCCC)(CCCC)CCCCCC)N1CCC2(CCN(CCCCO)CC2)CC1 [Example 39, 2-(9-(4-hydroxybutyl)-3,9-diazaspiro[5.5]undecan-3-yl)propane-1,3-diyl bis(3,3-dibutylnonanoate)]
Size (nm) [1]: 134 nm
PDI [1]: 0.080
EE % [2]: 100%
EC50 Hek293F (ng/well) (HEK293F cells): 4.1 ng/well
EC50 Hela (ng/well) (Hela cells): 3.4 ng/well

CCCCCCCC(CCCCCCC)CCC(=O)OCC(COC(=O)CCC(CCCCCCC)CCCCCCC)N1CCC2(CCN(CCCCO)CC2)CC1 [Example 40, 2-(9-(4-hydroxybutyl)-3,9-diazaspiro[5.5]undecan-3-yl)propane-1,3-diyl bis(4-heptylundecanoate)]
Size (nm) [1]: 117 nm
PDI [1]: 0.080
EE % [2]: 100%
EC50 Hek293F (ng/well) (HEK293F cells): 5.6 ng/well
EC50 Hela (ng/well) (Hela cells): 3.6 ng/well

CCCCCCCC(CCCCCCC)C(=O)OCC(COC(=O)C(CCCCCCC)CCCCCCC)N1CCC2(CCN(CCCCCO)C2)C1 (centres unmarked) [Example 41, 2-(7-(5-hydroxypentyl)-2,7-diazaspiro [4.4]nonan-2-yl)propane-1,3-diyl bis(2-heptylnonanoate)]
Size (nm) [1]: 119 nm
PDI [1]: 0.060
EE % [2]: 99%
EC50 Hek293F (ng/well) (HEK293F cells): 0.20 ng/well
EC50 Hela (ng/well) (Hela cells): 0.30 ng/well

CCCCCCCCCC(=O)OCC(COC(=O)C(CCCCCC)CCCCCCCC)N1CCC2(CCN(CCCCO)CC2)CC1 (centres unmarked) [Example 42, 3-(decanoyloxy)-2-(9-(4-hydroxybutyl)-3,9-diazaspiro[5.5]undecan-3-yl)propyl 2-hexyldecanoate]
Size (nm) [1]: 100 nm
PDI [1]: 0.080
EE % [2]: 99%
EC50 Hek293F (ng/well) (HEK293F cells): 42.7 ng/well
EC50 Hela (ng/well) (Hela cells): >50 ng/well
